Test results as given in patent publication US8790724B2, “Formulation of dual cycloxygenase (COX) and lipoxygenase (LOX) inhibitors for mammal skin care” (Unigen, Inc., priority 2003, dated 2014).
Like-named read-outs stand apart in the source and are kept apart here. Values belong to the compound of their own block, whether it stands above or below them.

Assays:
[1] = system: carrageenin-induced mouse paw edema; details: oral administration, 100 mg/kg; Min et al. (1999); cited from earlier work
COX-1 = details: cited from earlier work
[2] = system: LTB4 (5-LOX pathway) in HT-29 cells; experiment: Competitive ELISA for LTB4 in HT-29 cells; assay type: cell-based; details: Homo sapiens, 3 μg/mL, 48 hrs, read-out: inhibition of LTB4 production in HT-29 cells
Procedure: A Soliprin™ formulation (80:20) was prepared as described in Example 9. (See also Example 14 of U.S. patent application Ser. […] The sample was titrated in tissue culture media containing THP-1 or HT-29 cells; monocyte cell lines that express COX-1, COX-2 and 5-LOX. A competitive ELISA for Leukotriene B4 (LTB4; Neogen, Inc., Cat #406110) was used to assess the effect of this Soliprin™ formulation on newly synthesized levels of LTB4 present in each cell line as a measure Soliprin™'s inhibitory effect on the 5-LOX pathway. The assay was performed in duplicate by adding 160,000 to 180,000 cells per well in 6-well plates. […] Each treated cell line was then harvested by centrifugation and disrupted by gentle dounce homogenization lysis in physiological buffers.

[3] = system: cox-2 gene transcription in human colon cancer DLD-1 cells; details: Mutoh et al. (2000), read-out: IC50 suppression of cox-2 gene transcription; cited from earlier work
[4] = system: prostaglandin endoperoxide synthase; details: Kalkbrenner et al. (1992); cited from earlier work
recombinant ovine COX-2 = biological target: T1, recombinant ovine COX-2 (Ovis aries, UniProt P79208); experiment: Inhibition of COX-2 peroxidase activity, TMPD assay (Example 3); assay type: biochemical; details: IC50 normalized to the number of enzyme units
T1 construct: purchased Cayman
T1 sequence (P79208 17-603): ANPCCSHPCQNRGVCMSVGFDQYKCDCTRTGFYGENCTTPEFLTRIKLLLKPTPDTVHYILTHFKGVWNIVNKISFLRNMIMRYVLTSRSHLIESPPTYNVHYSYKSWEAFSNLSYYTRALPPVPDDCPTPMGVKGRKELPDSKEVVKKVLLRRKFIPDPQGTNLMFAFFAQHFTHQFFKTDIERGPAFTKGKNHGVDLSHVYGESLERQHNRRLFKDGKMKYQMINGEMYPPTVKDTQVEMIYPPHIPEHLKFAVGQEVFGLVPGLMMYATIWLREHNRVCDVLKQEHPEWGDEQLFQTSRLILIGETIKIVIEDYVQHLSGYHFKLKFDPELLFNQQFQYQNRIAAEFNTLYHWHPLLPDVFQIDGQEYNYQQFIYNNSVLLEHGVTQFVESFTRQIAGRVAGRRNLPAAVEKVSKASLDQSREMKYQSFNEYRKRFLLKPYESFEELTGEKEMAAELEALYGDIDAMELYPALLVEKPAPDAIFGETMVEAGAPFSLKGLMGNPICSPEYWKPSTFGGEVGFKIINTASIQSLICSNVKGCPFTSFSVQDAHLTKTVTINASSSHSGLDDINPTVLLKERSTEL
Description: (§1) In order to screen for compounds that inhibited the COX-1 and COX-2 activities, a high throughput, in vitro assay was developed that utilized the inhibition of the peroxidase activity of both enzymes. […] Briefly, the composition or compound being examined was titrated against a fixed amount of COX-1 and COX-2 enzymes. A cleavable, peroxide chromophore was included in the assay to visualize the peroxidase activity of each enzyme in presence of arachidonic acid as a cofactor. Typically, assays were performed in a 96-well format. Each inhibitor, taken from a 10 mg/mL stock solution in 100% DMSO, was tested in triplicate at room temperature using the following range of concentrations: 0, 0.1, 1, 5, 10, 20, 50, 100, and 500 μg/mL. […] The components were mixed for 10 seconds on a rotating platform, followed by the addition of 20 μL of 2 mM N,N,N′N′-tetramethyl-p-phenylenediamine dihydrochloride (TMPD) and 20 μL of 1.1 mM arachidonic acid to initiate the reaction. The plate was shaken for 10 seconds and then incubated 5 minutes before reading the absorbance at 570 nm. The inhibitor concentration vs. % inhibition was plotted and the IC50 determined by taking the half-maximal point along the isotherm and intersecting the concentration on the X-axis. The IC50 was then normalized to the number of enzyme units in the assay.

recombinant ovine COX-1 = biological target: T2, recombinant ovine COX-1 (Ovis aries, UniProt P05979); experiment: Inhibition of COX-1 peroxidase activity, TMPD assay (Example 3); assay type: biochemical
T2 sequence (P05979 25-600): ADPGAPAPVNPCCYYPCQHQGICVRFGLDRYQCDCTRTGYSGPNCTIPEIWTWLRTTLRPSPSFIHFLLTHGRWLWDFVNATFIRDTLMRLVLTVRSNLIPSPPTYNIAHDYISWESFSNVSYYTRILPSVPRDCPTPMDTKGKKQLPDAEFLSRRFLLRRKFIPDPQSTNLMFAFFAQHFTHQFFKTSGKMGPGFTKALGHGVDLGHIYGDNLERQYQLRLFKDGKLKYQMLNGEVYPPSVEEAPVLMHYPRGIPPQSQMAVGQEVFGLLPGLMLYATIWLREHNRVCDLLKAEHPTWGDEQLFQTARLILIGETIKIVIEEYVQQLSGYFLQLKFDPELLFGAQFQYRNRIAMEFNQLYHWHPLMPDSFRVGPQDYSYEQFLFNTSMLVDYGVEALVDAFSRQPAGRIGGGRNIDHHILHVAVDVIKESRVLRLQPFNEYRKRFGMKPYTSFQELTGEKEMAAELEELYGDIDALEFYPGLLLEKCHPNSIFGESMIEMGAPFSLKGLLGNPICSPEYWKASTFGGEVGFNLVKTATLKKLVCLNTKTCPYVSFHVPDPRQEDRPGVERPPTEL
Description: as §1

Structure (SMILES): Oc1ccc([C@H]2Oc3cc(O)cc(O)c3C[C@H]2O)cc1 [Epiafzelechin]
anti-inflammatory activity against carrageenin-induced mouse paw edema [1]: demonstrated anti-inflammatory activity | IC50 (COX-1; isolated from Celastrus orbiculatus, Min et al. (1999)): 15 µM

Structure (SMILES): CC(C)Cc1ccc(C(C)C(=O)O)cc1 (stereo not drawn) [Ibuprofen, ibuprofen]
inhibition at 3 µg/mL [2]: 20%

Structure (SMILES): Oc1cc(O)c2c(c1)OC(c1ccc(O)c(O)c1)C(O)C2 (stereo not drawn) [Catechin]
IC50 [3]: 415 µM | IC50 [4]: 40 µM | IC50 (COX-1; isolated from the bark of Ceiba pentandra, Noreen et al. (1998) J. Nat. Prod. 61:8-12): 80 µM

IC50 for COX-2 (recombinant ovine COX-2): 0.28 μg/mL/unit | IC50 for COX-1 (recombinant ovine COX-1; peroxidase activity, IC50 normalized to the number of enzyme units): 0.44 μg/mL/unit of enzyme
Structure (SMILES): O=C(O)[C@H]1O[C@@H](Oc2cc3oc(-c4ccccc4)cc(=O)c3c(O)c2O)[C@H](O)[C@@H](O)[C@@H]1O [Baicalin]

Inhibition of COX-1 (recombinant ovine COX-1; purified Free-B-Ring flavonoids, concentration not given): 16%
Structure (SMILES): COc1c(O)cc(O)c2c(=O)cc(-c3ccccc3)oc12 [Wogonin]
